Results reported in patent US10597674B2, “HPPD variants and methods of use” (BASF Agricultural Solutions Seed, US LLC, priority 2015, dated 2020).

Key:
[1] = test system: transgenic soybean T0 events; test: Greenhouse spray test of T0 soybean events, herbicide tolerance rating 0-3; format: in vivo; details: wild-type soybean plants, 300 g AI/ha, 5 days after spraying
[2] = test system: transgenic T1 soybean events; test: Field trials of T1 soybean events, leaf damage eight days after application; format: in vivo; details: wild-type or segregated T1 soybean plants without tolerant polypeptide; 210 g/ha isoxaflutole or 150 g/ha Cmpd. 1; eight days
How it was run: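 T1 soybean events carrying the HPPD inhibitor tolerant polypeptide, field-grown and sprayed with isoxaflutole 210 g/ha or Cmpd 150 g/ha. Leaf damage scored eight days after application; good tolerance defined as ≤15% damaged leaf area, reported as event frequency.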

In the case of `CSc1c(C(F)(F)F)ccc(C(=O)Nc2nnnn2C)c1Cl` [Cmpd. 1, 2-chloro-3-(methylsulfanyl)-N-(1-methyl-1H-tetrazol-5-yl)-4-(trifluoromethyl)benzamide, reference compound], the “leaf damage of the top two trifoliate leaves” value [1] is reported as “more than 95%” and the leaf damage [2] is reported as 100%.
